Data as given in US11612634B2 (priority 2020, dated 2023).

How the values were obtained:
[1] = tested on: morphine analgesic tolerance, inflammatory pain rat model; test: Effect on morphine analgesic tolerance in Carr-induced inflammatory pain rat model; type: in vivo; conditions: for effect of cysteine-mutated peptide on morphine analgesic tolerance: Carr model, with morphine, dose not given
Method: The Carr-induced inflammatory pain model was built according to a published method (Alessandri-Haber N, et al. Neurosci. Vol 29(19), pp. 6217-6288, 2009) for evaluating an analgesic effect of drugs administered by intraplantar injection. Specifically, 6 μL of 1 wt % Carr solution was injected into the rats between the 2nd and 3rd toes of a left hind paw to induce hyperalgesia, which was manifested as plantar swelling and a declined pain threshold of the rats within 1 hour after the injection. Those rats with a PWT lower than 100 gf were considered to be a desired Carr-induced inflammatory pain model, those rats with the PWT higher than 100 gf was removed.
(§1) (1) 24 healthy adult SD rats, weighing 180-220 g, were selected, reinjected with 6 μL of a 1 wt % Carr solution and divided into 4 groups randomly and averagely (i.e., groups A-D). The group A was injected with normal saline; the group B was intradermally injected with 0.1 μg/kg of the short peptide P10581 through the plantar surface of the left hind paw; the group C was intradermally injected with 0.1 μg/kg of the short peptide P10581 and then with 5 mg/kg of morphine 30 min later through the plantar surface of the left hind paw; and the group D was intradermally injected with 0.05 μg/kg of the short peptide P10581, and then with 5 mg/kg of morphine 30 min later through the plantar surface of the left hind paw. 1 h later, the PWT of each group was recorded when the mechanical withdrawal of the left hind paw occurred, and each rat was measured 3-5 times at an interval of 5-10 min.
(§2) (2) The drug was injected every 2 h according to the above-mentioned administration dose and time (seven times in total), and the PWT was recorded.
(S1) By means of molecular biological techniques, two cysteine residues (Cys10 and Cys11) in the short peptide P10581 were replaced with alanine (Ala), and the resulting peptide was named P10581-1 (SEQ ID NO: 2).
(S2) Three cysteine residues (Cys10, Cys11 and Cys17) in the short peptide P10581 were replaced with alanine (Ala), and the resulting peptide was named P10581-2 (SEQ ID NO: 3).
The rat was injected with 6 μL of 1 wt % Carr to establish a Carr-induced inflammatory pain model, and the effect of the short peptides P10581, P10581-1 and P10581-2 on the morphine analgesic tolerance was analyzed according to Experimental Example 1. […]

[2] = tested on: Carr-induced inflammatory pain rat model; test: Analgesic effect on mechanical hyperalgesia (PWT) in Carr-induced inflammatory pain rat model; type: in vivo; conditions: 2 μg/kg i.d. plantar, every 2 h, six injections
Method: The mechanical hyperalgesia of rats was measured by 38500-pressure application measurement (PAM) system (Ugo Basile Biological Research Apparatus, Comerio-Varese, Italy), which consisted of a hand-held part and an integrated electronic part. The hand-held part was a force sensor which was designed according to a Randall-Selitto algesimeter. The integrated electronic part was configured to automatically record a maximum PWT applied to the left hind paw of the rats.
The Carr-induced inflammatory pain model was built according to a published method (Alessandri-Haber N, et al. Neurosci. Vol 29(19), pp. 6217-6288, 2009) for evaluating an analgesic effect of drugs administered by intraplantar injection. […] Those rats with a PWT lower than 100 gf were considered to be a desired Carr-induced inflammatory pain model, those rats with the PWT higher than 100 gf was removed.
(S1) A total of 18 healthy adult SD rats, weighing 180-220 g, were selected, numbered on tails and placed in the same cage.
(S2) The rats were maintained in a measuring room for 2 h for adaptation.
The measurement was repeated 3-5 times for each rat with an interval of 5-10 min. The results of multiple PWT measurements were averaged as the Baseline (BL) (unit: g). After that, 6 μL of 1 wt % Carr was intradermally injected into the plantar surface of the hind paw to build an inflammatory pain rat model.
(S4) The PWT of the left hind paw of each rat was measured 1 h after the Carr injection. Rats with a higher inflammatory threshold and rats with a lower inflammatory threshold were mixed and equally divided into three groups (group A, group B and group C), each for six rats, such that any two groups of rats had similar distribution of inflammatory threshold. The groups A, B and C were intradermally injected with normal saline, 5 mg/kg of morphine and 2 μg/kg of the short peptide P10581, respectively, at the plantar surface of the left hind paw. 1 h later, the PWT of the left hind paw of the rats in each group was measured 3-5 times at an interval of 5-10 min. The multiple PWT measurement results were averaged as the practical PWT (unit: g). Then the drug was injected every 2 h according to the above-mentioned administration dose and time, and the corresponding PWT was recorded (six injections in total).
as §1, §2
(S1) A total of 20 healthy adult SD rats (half male and half female), weighing 180-220 g, were selected, numbered on tails and transferred to the same cage.
(S4) The PWT of the left hind paw of each rat was measured 1 h after the Carr injection.

| Sequence | effect of cysteine-mutated peptide on morphine analgesic tolerance [1] | decrease in the analgesic effect compared to P10581 ([1]; after 8 injections, with morphine (FIG. 5C)) [%] | effect on morphine analgesic tolerance ([1]; 0.1 μg/kg peptide i.d. 30 min before 5 mg/kg morphine, every 2 h) | analgesic effect on Carr-induced inflammatory pain threshold (PWT) [2] | analgesic tolerance after repeated injection [2] |
| --- | --- | --- | --- | --- | --- |
| WKCNPNDDKAARPKLKA [P10581-2, P10581 with Cys10, Cys11 and Cys17 replaced with alanine] | no relieving effect on the morphine analgesic tolerance | – | – | – | – |
| WKCNPNDDKAARPKLKC [P10581-1, P10581 with Cys10 and Cys11 replaced with alanine] | merely partially relieve the morphine analgesic tolerance | 57.6 | – | – | – |
| WKCNPNDDKCR [P10583, comparative short peptide, reference compound] | – | – | no relieving effect | completely reverse the Carr-induced inflammatory pain threshold | without developing the analgesic tolerance |
